Reference: patent US20120040956A1, “INHIBITORS OF HIF-1 PROTEIN ACCUMULATION” (INTERMED DISCOVERY GMBH, priority 2008, published 2012)

Key:
[1] = test system: PDK1 (pyruvate dehydrogenase kinase1); assay: HIF-1 target gene PDK1 expression in 293T cells by real-time PCR; format: cell-based; details: Homo sapiens, HEK-293T, 1 h pretreatment, 8 h hypoxia, read-out: IC50, suppression of endogenous PDK1 gene expression
Procedure: Human 293T cells were cultivated either under normoxic conditions or under hypoxic conditions (1% oxygen) for 4 and 8 hs respectively. Cells were harvested, followed by the isolation of RNA and the generation of cDNAs from Oligo (dT)20 primers using a Reverse Transcriptase kit. Then gene expression was measured by real-time PCR for the following two selected HIF-1α target genes: LDH-A (lactate dehydrogenase isoform A), and PDK1 (pyruvate dehydrogenase kinase1). Real-time PCR was performed with cDNA using specific primers and the SYBR Green I detection chemistry system (Applied Biosystems), utilizing an ABI Prism 7300 system. Actin was also measured as an internal control. The relative abundance of the different genes was calculated by the comparative CT method. In order to facilitate comparison, gene expression under normoxic conditions was arbitrarily set to 1 for each of the three genes. Two independent experiments confirmed PDK1 as the gene which was induced most prominently compared to LDH.
To investigate the capability of the compounds to inhibit PDK1, 293T cells were pretreated for 1 h with 3 different concentrations of the respective inhibitors (IMD-019064; IMD-026259; and IMD-026260). Subsequently, cells were incubated under normoxic/hypoxic conditions for further 8 h and the expression of PDK1 was quantified by real-time PCR as described above.

HUVEC [2] = assay: Spheroid-based angiogenesis assay, VEGF-A induced HUVEC sprouting; format: cell-based, human
Procedure: As described in Example 4 HUVEC spheroids were generated, cultivated and embedded in a 3D collagen gel and stimulated with Vascular Endothelial Growth Factor alpha [VEGF-A; 25 ng/ml] instead of deferoxamine. Cell spheroids were treated for 24 h with different concentrations of IMD-026259; IMD-026260; Sutent® (Sunitinib) and Sorafenib (Nexavar®) (in Molar [M], as indicated in Table 4; see also FIG. 14A).
The cumulative sprout length of 10 randomly selected spheroids per data point was analyzed and the relative inhibition by the test compound determined. Fitting of IC50 curves and calculation of IC50 values was performed with GraphPad Prism® 5.01 (trademarked by GraphPad Software Inc.). […] Results from the examples described above are summarized in FIG. 14b IC50 values are given in nM for in vitro angiogenesis (HUVEC sprouting) studies after hypoxic or VEGF induction.

HUVEC [3] = assay: Spheroid-based angiogenesis assay, Deferoxamine (hypoxia) induced HUVEC sprouting; format: cell-based, human
Procedure: (§1) Prior application the stock solution [100 mM] of IMD-019064 was diluted 1:10 in DMSO and serially diluted in half logarithmic steps covering the concentration range from 10 mM to 1 μM using 100% DMSO. The final assay concentration ranged from 100 μM to 10 nM with a final DMSO concentration in the assay of 1%. The experiments were pursued in modification of the originally published protocol (Korff and Augustin: J Cell Sci 112: 3249-58, 1999). In brief, spheroids were prepared as described by Korff and Augustin: J Cell Biol 143: 1341-52, 1998) by pipetting 500 endothelial cells (EC) in a hanging drop on plastic dishes to allow overnight spheroid aggregation. 50 EC spheroids were then embedded in 0.9 ml of a 3D collagen matrix and pipetted into individual wells of a 24 well plate to allow polymerization.
(§2) Plates were incubated at 37° C. for 24 hours and fixed by adding 4% paraformaldehyde. The cumulative sprout length of 10 randomly selected spheroids per data point was analyzed and the relative inhibition by the test compound determined. Fitting of IC50 curves and calculation of IC50 values was performed with GraphPad Prism 5.01. Sprouting intensity of EC and fibroblast spheroids was quantitated by an image analysis system using an inverted microscope and the digital imaging software Analysis 3.2 (Soft imaging system, Munster, Germany). In parallel NHDF (fibroblast) spheroids were embedded in a 3D collagen gel and treated for 24 h with different concentrations of IMD-019064. The cumulative sprout length of 10 randomly selected spheroids per data point was analyzed according to the procedure used for the HUVEC experiment.
The same assays were performed with IMD-026260; IMD-026259; Sutent® (Sunitinib) and Sorafenib (Nexavar®) (see Table 3 for final compound concentrations).

NHDF (fibroblast) = NHDF (fibroblast) spheroid sprouting/scattering in 3D collagen gel; format: cell-based; details: Homo sapiens, 24 h, 3D collagen gel, read-out: IC50, NHDF fibroblast spheroid sprouting/scattering
Procedure: as §1, with “50 EC spheroids were then embedded in 0.9 ml of a 3D collagen matrix and pipetted into individual wells of a 24 well plate to allow polymerization.” left out
as §2, with “Fitting of IC50 curves and calculation of IC50 values was performed with GraphPad Prism 5.01.” left out, “In parallel NHDF (fibroblast) spheroids were embedded in a 3D collagen gel and treated for 24 h with different concentrations of IMD-019064.” left out, “experiment. […]” for “experiment.”

IKKy/NEMO = assay: Cellular protein translation in 293T cells (anti-IKKy/NEMO immunoblotting); format: cell-based, human; details: 100 nM, 10 h and 24 h
Procedure: 293T cells were grown in the presence of the known translation inhibitor cycloheximide (10 μg/ml) and 100 nM of IMD-019064, IMD-026259 and IMD-026260 respectively. […] Cells were harvested after 10 h and 24 h and cell lysates were produced. Equal amounts of protein contained in the cell lysates were used for immunoblotting with anti-IKKy/NEMO antibodies as shown in FIG. 12. IKKy/NEMO is a constitutively expressed relatively labile protein. Thus successful inhibition of cellular protein translation should result in significant decline of anti-IKKy/NEMO signal.

HIF-1α mRNA = assay: Hif-1α mRNA expression by real-time PCR; format: cell-based; details: human cells, 250 nM for 3 h, normoxic or hypoxic (45 minutes, 1% O2)
Procedure: In order to investigate whether the compounds of the invention do exert their HIF-1-1 suppressive action via inhibition of HIF-1-1 transcription the compounds were tested for their effects on HIF-1α mRNA production. In all experiments, human cells were exposed to efficiently blocking concentrations (250 nM) of the test compounds for 3 h. Then cells were further cultivated under normoxic or hypoxic conditions (45 minutes, 1% O2) respectively. Afterwards cell samples were harvested and RNA was extracted. cDNA was synthesized using specific primers and the PE Applied Biosystems Reverse Transcription Reagents. Real-time PCR was performed by using the SYBR Green I detection chemistry (Applied Biosystems) and an ABI Prism 7300 system. The expression of Hif-1α was quantified and results were normalized to Hprt1 and β-Actin (“housekeeping-gene”) expression. The relative abundance of the different genes was calculated by the comparative CT method. HIF-1α transcription of normoxic control cells was arbitrarily set to 1. […] Therefore an effect of IMD-compounds on HIF-1-dependent gene expression seems not to be mediated on HIF-1α transcription (FIG. 5).

With `CNCCOc1ccc2c(c1)OC1(c3ccc(Cl)cc3)C(c3ccccc3)CC(O)C21O` (centres unmarked) [IMD-026260, (1,3a,8b)-3a-(4-chlorophenyl)-6-(2-(methylamino)ethoxy)-3-phenyl-2,3,3a,8b-tetrahydro-1H-benzo[d]cyclopenta[b]furan-1,8b-diol] the IC50 [1] was 8 nM, the IC50 (HUVEC [2]; Homo sapiens, HUVEC, VEGF-A 25 ng/ml, 24 h, read-out: IC50, VEGF-A induced sprouting of HUVEC spheroids) was 28 nM and the “inhibition of angiogenic sprouting in vitro (HUVEC sprouting)” value (HUVEC [2]; after hypoxic or VEGF induction, summary statement) was “potent inhibitors of angiogenic sprouting in vitro”. For the same compound, the IC50 (HUVEC [3]; Homo sapiens, HUVEC, Deferoxamine 100 μM, 24 hours, collagen matrix, read-out: IC50, hypoxia induced EC (HUVEC) sprouting) was 13 nM, the “difference in HUVEC and fibroblast sensitivity” value (HUVEC [3]; NHDF IC50 versus Deferoxamine-induced HUVEC IC50) was “greater than thirteen-fold” and the IC50 (NHDF (fibroblast)) was 180 nM. The “anti-IKKy/NEMO signal (cellular protein translation)” value (IKKy/NEMO) was “did not result in reduced anti-IKKy/NEMO signals” and the “effect on Hif-1α mRNA production” value (HIF-1α mRNA) was “did not show any effects”.
